Measured values reported in patent US20240002388A1, “PYRIMIDINONE COMPOUNDS AND USES THEREOF” (HUTCHISON MEDIPHARMA LIMITED, priority 2020, published 2024).

Test system: L929 cell line (mouse fibroblastoma cell line)
Test: L929 cell viability assay (mTNF-α + Z-VAD-FMK induced necroptosis)
Format: cell-based
Conditions: L929 cells, mTNF-α 0.1 μg/mL + Z-VAD-FMK 5 μM, CellTiter-Glo
Description: L929 cell line (mouse fibroblastoma cell line): purchased from ATCC (American Type Culture Collection) Cell Bank, cultured in 5% CO2, 37° C. incubator, and MEM medium which contains L-Glutamine, with 10% FBS was used. • MEM medium: GIBCO, Cat #11095080; • Fetal bovine serum (FBS): GIBCO, Cat #10099-141C; • Dimethyl sulfoxide (DMSO): Sigma, Cat #D2650; • 0.25% Trypsin-EDTA: GIBCO, Cat #25200072; • Recombinant Mouse TNF-alpha Protein (mTNF-α): R&D system, Cat #410-MT-050; • Pan-Caspase inhibitor (Z-VAD-FMK): Selleckchem, Cat #S7023; • CellTiter-Glo 2.0 Cell Viability Assay kit: Promega, Cat #G9242; • Microwell plate reader: Envision, Perkin Elmer; • 96-well plate: Corning, Cat #3917.
The L929 cells at the logarithmic phase were taken out, and the supernatant was discarded. After trypsinization and cell shedding, 10% FBS-containing medium was added for neutralization, and the supernatant was discarded after centrifugation. The cells were re-suspended using 10% FBS-containing medium, adjusted to 7×10^4 cells/ml, added to 96-well microplate at 70 μL/well, i.e., 4.9×10^3 cells/well. Then the plate was incubated in a 5% CO2, 37° C. cell incubator overnight.
After incubating overnight, the 96-well plate was taken out, the medium was discarded, and the plate was washed with 1% FBS-containing MEM medium. Then 1% FBS-containing MEM medium was added at 70 μL/well, and the plate was cultured in a 5% CO2, 37° C. cell incubator. After incubating for 1 hour, the test compound was diluted to the corresponding concentrations using DMSO with 3-fold serial dilution, then the corresponding concentration of DMSO diluted solution was diluted into 1% FBS-containing MEM medium, and 10 μL/well of the diluted test compound with different concentrations (final concentrations of test compound were 10, 3.33, 1.11, 0.37, 0.12, 0.04, 0.014 and 0.005 μM, while final concentration of DMSO was 0.3%) or 10 μL/well control solution (3% DMSO) were added to the cell culture system respectively, with the total volume being 80 μL/well. Then 10 μL of Z-VAD-FMK solution diluted with 1% FBS-containing MEM medium (final concentration of 5 μM) or 10 μL of control solution (2.5% DMSO) was added to each well, with the total volume being 90 μL/well. The plate was incubated in a 5% CO2, 37° C. cell culture incubator for 1 hour.
After incubating for 1 hour, 10 μL of recombinant mouse TNF-α protein solution diluted with 1% FBS-containing MEM medium (final concentration of 0.1 μg/mL) or 10 μL control solution (1% FBS-containing MEM medium) was added to each well. The plate was incubated in a 5% CO2, 37° C. cell culture incubator for 20 hours.
The cell culture plate was taken out from the incubator, and left to stand at room temperature for 30 minutes. Meanwhile, CellTiter-Glo viability assay kit was put from freezer to room temperature, and 50 μL of CellTiter-Glo reagent was added to all wells, the plate was shaken for 1 minutes, protected from light at room temperature for 10 minutes then read the plate on Envision to get the luminescence signal.
The 96-well plate in the dark was taken out, and the chemiluminescence was determined using the Envision microwell plate reader as the signal value of each well.
The mean signal value of the wells of the mixed solution of recombinant mouse TNF-alpha protein (final concentration of 0.1 μg/mL) and Pan-Caspase inhibitor (final concentration of 5 μM) was used as the lower value, and the mean signal value of the wells without stimulation was used as the upper value. According to the signal value of each well, the inhibition rate of each concentration of every compound was calculated, and the IC50 value of compound was obtained by Model 205 in XL-Fit 5.3 software (ID Business Solutions Limited).
Inhibition rate %=[(Luminescence readout of treated compound−Luminescence readout of positive control)/(Luminescence readout of negative control−Luminescence readout of positive control)]×100%, wherein

SMILES	IC50 (Mus musculus, L929, 20 h) [nM]	IC50 (20 hours) [nM]
Cn1cncc(-c2ccc(C3(NC(=O)c4nnc(Cc5c(F)cccc5F)[nH]4)CC3)cc2)c1=O [Compound 18]	1720	
CC(C)n1cncc(-c2ccc(C3(NC(=O)c4ncc5cnn(C(C)C)c5n4)CC3)c(F)c2Cl)c1=O [Compound 91]	786	
CC(C)n1ncc2cnc(C(=O)NC3(c4ccc(-c5cncn(CC6CC6)c5=O)cc4F)CC3)nc21 [Compound 74]	30	
CC(C#N)n1cncc(-c2ccc(C3(NC(=O)c4ncc5cnn(C(C)C)c5n4)CC3)cc2)c1=O (stereo in doubt) [Compound 82, (R)—N-(1-(4-(1-(1-cyanoethyl)-6-oxo-1,6-dihydropyrimidin-5-yl)phenyl)cyclopropyl)-1-i-propyl-1H-pyrazolo[3,4-d]pyrimidine-6-carboxamide]	359	
CC(C)n1ncc2cnc(C(=O)NC3(c4ccc(-c5cncn([C@H]6C[C@@H](F)C6)c5=O)cc4)CC3)nc21 [Compound 88, N-(1-(4-(1-(cis-3-fluorocyclobutyl)-6-oxo-1,6-dihydropyrimidin-5-yl)phenyl)cyclopropyl)-1-i-propyl-1H-pyrazolo[3,4-d]pyrimidine-6-carboxamide]		335
C[C@@H](n1cncc(-c2ccc(C3(NC(=O)c4ncc5cnn(CC6CC6)c5n4)CC3)c(F)c2)c1=O)C(F)(F)F [Compound 76]	32	
CC(C)n1cncc(-c2ccc(C3(NC(=O)c4ncc5cnn([C@H](C)C6CC6)c5n4)CC3)cc2)c1=O [Compound 89, (R)-1-(1-cyclopropylethyl)-N-(1-(4-(1-i-propyl-6-oxo-1,6-dihydropyrimidin-5-yl)phenyl)cyclopropyl)-1H-pyrazolo[3,4-d]pyrimidine-6-carboxamide]	38	
CC(C)n1ncc2cnc(C(=O)NC3(c4ccc(-c5cncn(C6CCC6)c5=O)cc4)CC3)nc21 [Compound 42]	119	
Cn1cncc(-c2ccc(C3(NC(=O)c4noc(Cc5ccccc5)n4)CC3)cc2)c1=O [Compound 9]	2810	
CC(C)n1cncc(-c2ccc(C3(NC(=O)c4ncc5cnn(C(C)C6CC6)c5n4)CC3)cc2)c1=O (racemic) [Compound 59, 1-(1-cyclopropylethyl)-N-(1-(4-(1-i-propyl-6-oxo-1,6-dihydropyrimidin-5-yl)phenyl)cyclopropyl)-1H-pyrazolo[3,4-d]pyrimidine-6-carboxamide]	17	
CC(C)n1ncc2cnc(C(=O)NC3(c4ccc(-c5cncn([C@H]6C[C@H](F)C6)c5=O)cc4)CC3)nc21 [Compound 87, N-(1-(4-(1-(trans-3-fluorocyclobutyl)-6-oxo-1,6-dihydropyrimidin-5-yl)phenyl)cyclopropyl)-1-i-propyl-1H-pyrazolo[3,4-d]pyrimidine-6-carboxamide]	393	
CC(C)n1cncc(-c2ccc(C3(NC(=O)c4nc5n(n4)[C@@H](c4ccccc4)CC5)CC3)cc2)c1=O [Compound 15]	2360	
CC(C)n1cncc(-c2ccc(C3(NC(=O)c4ncc5cnn(C(C)C)c5n4)CC3)c(F)c2)c1=O [Compound 34]	78	
CC[C@@H](C)n1cncc(-c2ccc(C3(NC(=O)c4ncc5cnn(C(C)C)c5n4)CC3)cc2)c1=O [Compound 44]	28	
CC(C)n1ncc2cnc(C(=O)NC3(c4ccc(-c5cncn(C)c5=O)cn4)CC3)nc21 [Compound 2]	7450	
CC(C)n1ncc2cnc(C(=O)NC3(c4ccc(-c5cncn(C6CCOC6)c5=O)cc4)CC3)nc21 (stereo in doubt) [Compound 80, (R)-1-i-propyl-N-(1-(4-(6-oxo-1-(tetrahydrofuran-3-yl)-1,6-dihydropyrimidin-5-yl)phenyl)cyclopropyl)-1H-pyrazolo[3,4-d]pyrimidine-6-carboxamide]	297	
CC(C)n1cncc(-c2ccc(C3(NC(=O)c4ncc5cnn(CC6CCC6)c5n4)CC3)cc2)c1=O [Compound 62]	27	
Cn1cncc(-c2ccc(C3(NC(=O)c4nc5n(n4)[C@@H](c4ccccc4)CC5)CC3)cc2)c1=O [Compound 54, (R)—N-(1-(4-(1-methyl-6-oxo-1,6-dihydropyrimidin-5-yl)phenyl)cyclopropyl)-5-phenyl-6,7-dihydro-5H-pyrrolo[1,2-b][1,2,4]triazole-2-carboxamide]	578	

SMILES	IC50 (Mus musculus, L929, 20 h) [nM]	IC50 (20 hours) [nM]
CC(C)n1ncc2cnc(C(=O)NC3(c4ccc(-c5cncn([C@H]6C[C@@H]6F)c5=O)cc4)CC3)nc21 [Compound 67]	5650	
CC(C)n1ncc2cnc(C(=O)NC3(c4ccc(-c5cncn([C@H](C)C(F)(F)F)c5=O)cc4F)CC3)nc21 (stereo in doubt) [Compound 46]	19	
Cn1cncc(-c2ccc(C3(NC(=O)c4ncn(Cc5ccccc5)n4)CC3)cc2)c1=O [Compound 8]	1760	
CC(C)n1cncc(-c2ccc(C3(NC(=O)c4ncc5cnn(-c6ccccn6)c5n4)CC3)cc2)c1=O [Compound 63]	9420	
CC(C)n1cncc(-c2ccc(C3(NC(=O)c4ncc5cnn(CC6CC6)c5n4)CC3)cc2F)c1=O [Compound 73]	41	
CC(C)n1ncc2cnc(C(=O)NC3(c4ccc(-c5cncn(C6(C)CCC6)c5=O)cc4)CC3)nc21 [Compound 79]	10	
CC(C)n1cncc(-c2ccc(C3(NC(=O)c4nnc(Cc5ccccc5)o4)CC3)cc2)c1=O [Compound 13]	195	
CC(C)n1cncc(-c2ccc(C3(NC(=O)c4nc5n(n4)[C@H](c4ccccc4)CC5)CC3)cc2)c1=O [Compound 16]	7	
CC(C)n1ncc2cnc(C(=O)NC3(c4ccc(-c5cncn(C6CC(F)(F)C6)c5=O)cc4)CC3)nc21 [Compound 65]	861	
CC(C)n1cncc(-c2ccc(C3(NC(=O)c4ncc5cnn(C(C)C)c5n4)CC3)cc2Cl)c1=O [Compound 33]	665	
CC(C)n1ncc2cnc(C(=O)NC3(c4ccc(-c5cncn(C)c5=O)c(Cl)c4)CC3)nc21 [Compound 25]	7600	
CC(C)n1cncc(-c2ccc(C3(NC(=O)c4ncc5cnn(C(C)C)c5n4)CC3)cc2F)c1=O [Compound 35]	154	
CC(C)n1cncc(-c2ccc(C3(NC(=O)c4ncc5cnn([C@@H](C)C6CC6)c5n4)CC3)cc2)c1=O [Compound 90, (S)-1-(1-cyclopropylethyl)-N-(1-(4-(1-i-propyl-6-oxo-1,6-dihydropyrimidin-5-yl)phenyl)cyclopropyl)-1H-pyrazolo[3,4-d]pyrimidine-6-carboxamide]	12	
CC(C)n1ncc2cnc(C(=O)NC3(c4cc(F)c(-c5cncn(CC6CC6)c5=O)cc4F)CC3)nc21 [Compound 94]	50	
CC(C)n1cncc(-c2ccc(C3(NC(=O)c4ncc5cnn(C6COC6)c5n4)CC3)cc2)c1=O [Compound 60]	9080	
CC(C)n1ncc2cnc(C(=O)NC3(c4ccc(-c5cnc(N)n(C)c5=O)cc4)CC3)nc21 [Compound 30]	2590	
CC(C)n1ncc2cnc(C(=O)NC3(c4ccc(-c5cncn(C6CCOCC6)c5=O)cc4)CC3)nc21 [Compound 77]	151	
CC(C)n1ncc2cnc(C(=O)NC3(c4ccc(-c5cncn([C@H](C)C6CC6)c5=O)cc4)CC3)nc21 [Compound 84, (R)—N-(1-(4-(1-(1-cyclopropylethyl)-6-oxo-1,6-dihydropyrimidin-5-yl)phenyl)cyclopropyl)-1-i-propyl-1H-pyrazolo[3,4-d]pyrimidine-6-carboxamide]	7	
